Numbered stars: 1 amine (or outer) side, 2 acyl side, 3 side chain; on linkers, the order of the positions; unused ones are H or OH. Bridge positions count the residues as written; N and C are the ends. Square brackets hold non-standard residues; d marks the D form. Peptide text beside a SMILES is read from it. Tyr(3-NO2) = N[C@@H](Cc1ccc(O)c([N+](=O)[O-])c1)C(=O)O; Glutaryl = O=C(CCCC(=O)[*:2])[*:1]; Orn = NCCC[C@H](N)C(=O)O
Tests used:
S. aureus (ATCC 12600) = experiment: Minimum microbicidal concentration (MMC99) assay; format: cell-based; conditions: BHI diluted 1/100, 37 °C, median, n = 3
Description: (§1) The microbicidal activity of the synthetic peptides was assessed against S. aureus (ATCC 12600; American Type Culture Collection, Manassas, VA, USA), Escherichia coli (CCUG 31246; Culture Collection, University of Gothenburg, Sweden), and Candida albicans (ATCC 64549/CCUG31028) using an MMC assay, as described previously by […] et al. (specific details in Supporting Information, pages 10, 11).[28] The assay was performed in BHI diluted 1/100 (BHI100). […] page 11: Table S5. Energy and structural ensembles of synthesized peptides. […] Energy -3887.06 -3620.88 -4968.42 -2163.76 -2646.75 Van der Waals solv. Energy 117.32 91.57 183.20 -88.88 -139.89 Mean RMSD* (Å), mean±SD […] Heavy atoms 1.87 ± 0.33 1.77 ± 0.50 0.98 ± 0.34 0.63 ±0.22 2.88 ±0.62 MMC99 activity including salt stability measurements Antimicrobial activity of L2 and L3 in the presence of NaCl. 1Table S6. Peptide MMC99 (μg/ml) sin NaCl S. aureus E.coli C. albicans (mM) 2[…] 0 50 25 25 85 - - - - - - >200 >200 >200 150 - - - - - - >200 >200 >200 3L 0 12.5 12.5 25 12,5 6.3 6.3 12.5 6.3 12.5 […] 150 >400 >400 (-)2 >400 >400 >400 >200 >200 >200 […] or 150 mM NaCl. L2 and L3 were serially diluted in twofold steps with a starting dilution of 200 μg/ml […] All sample dilutions were run in duplicates (L2) or triplicates (L3). 2 The growth of S. aureus at 24 h in BHI 100 with 85 or 150 mM NaCl was reduced. Minimum microbicidal concentration (MMC), killing 99% of the inoculum. All microorganisms were cultured in brain-heart infusion broth (BHI) overnight on a shaker at 37°C. The cultures were thereafter transferred to fresh BHI broth in volumes constituting 10% of total, and incubated for an additional 2 h to reach exponential growth phase. The bacterial cultures were washed once in BHI diluted 1/100 (BHI100), followed by resuspension in BHI100. The cell suspensions were diluted to a density of […] (bacteria) or 2x10^7 CFU/ml (yeast), as estimated by optical density measurement at 590 nm. […] Serum stability Figure S 133. […] A) peptide L2 B) peptide L3. C) peptide L3-K. D) peptide C3.

[1] = tested on: Candida albicans (ATCC 64549/CCUG31028); experiment: Minimum microbicidal concentration (MMC99) assay; format: cell-based, C. albicans; conditions: BHI diluted 1/100, 37 °C, median, n = 3
Description: as §1

S. aureus = experiment: microbe, parasite or virus in culture; format: cell-based; conditions: 16 h
E. coli CCUG31246 [2] = format: cell-based; conditions: E. coli CCUG31246; 1:10 BHI; 5 × 10^5 CFU/mL; 37 °C, 16 h, steady agitation; used as 1× MIC
Description: MICs were performed under the same growth conditions used for mode of action analysis following the guidelines issued by the Clinical Laboratory Standardization Institute (CLSI) with slight modifications. Serial two-fold dilutions of the peptides were prepared in 1:10 BHI in a sterile 96-well plate and subsequently inoculated with 5 × 10^5 CFU/mL of E. coli CCUG31246. […] The following MICs were obtained: C3: 512 μg/mL, L3: 64 μg/mL, and L3-K: 128 μg/mL. These concentrations were used for all mechanistic experiments. Polymyxin B was used as a positive control in all assays at a final concentration of 10 μg/mL.

C. albicans = experiment: microbe, parasite or virus in culture; format: cell-based; conditions: 16 h
[3] = 37 °C, RP-HPLC
Description: Peptide stability in serum is another limiting factor for AMPs as novel antibiotics.[30]
Peptide serum stability was performed according to D́Aloisio et al.[30] and Chen et al.[51] with some minor modifications. The serum stability was investigated using human serum (Sigma-Aldrich) from Human male AB plasma, USA origin, sterile-filtered. 250 μL serum was temperature-equilibrated at 37 °C and 100 μL aqueous peptide solution (L2: 1 mM; L3: 0.9 mM; L3-K: 0.7 mM; and C3: 0.5 mM) was added. RP-HPLC was measured at time intervals of 0, 0.5, 1, 4, and 24 h. For RP-HPLC samples, 30 μL of peptide solution was taken, 7 μL of Fmoc-Gly solution (4 mM) was added, and 2 μL of the sample was injected to HPLC. […]
Figure S 133. RP-HPLC chromatogram (gradient from 10 to 90% acetonitrile in water over 10 min at 2
ml/min, detection at 254 nm) of peptides tested for serum stability. A) peptide L2 B) peptide L3. C)
(1 picture or pasted object on this page, not shown here)

E. coli CCUG31246 [4] = experiment: DiSC(3)5 microscopy (membrane potential); format: cell-based; conditions: 0.5 μM DiSC(3)5
Excerpt: Propidium iodide is a large organic molecule that is not suitable to detect smaller ion-conducting pores or channels induced by antimicrobials. To assess whether the peptides may form smaller membrane pores sufficient for the passage of ions, we tested their effects on the membrane potential using the fluorescence probe DiSC(3)5.[40] This dye accumulates in the cell membrane in a membrane potential-dependent manner and disassociates, when the membrane potential is dissipated. […] This effect can be clearly seen with polymyxin B (Figure 7b).
The membrane potential of E. coli CCUG31246 and E. coli MC4100 carrying pABCON2-fhuA ΔC/Δ4L was measured by DiSC(3)5 microscopy according to ref. ([40]) with minor modifications. Cells were grown in 1:10 BHI containing 50 μg/mL bovine serum albumin to an OD600 of 0.3 prior to antibiotic treatment with the respective peptides for 10 and 60 min. Samples were stained with 0.5 μM DiSC(3)5 for 15 min (added 5 min before adding antibiotics for the 10 min time point and after 45 min of antibiotic treatment for the 60 min time point). Stained samples were spotted on 1.2% agarose, sealed with a gene frame, and imaged immediately. Microscopy was performed as described above, and fluorescence intensity was analyzed with the same parameters used for propidium iodide detection.

SMILES: CC(C)[C@H]1NC(=O)[C@H](CCCN)NC(=O)[C@H]([C@@H](C)O)NC(=O)[C@H](CCCN)NC(=O)[C@H](Cc2c[nH]c3ccccc23)NC(=O)[C@@H](C)NC(=O)[C@@H](C(C)C)NC(=O)[C@@H](C)NC(=O)[C@H](Cc2c[nH]c3ccccc23)NC(=O)CCCC(=O)NCCCC[C@@H](C(N)=O)NC(=O)[C@H](Cc2ccc(O)c([N+](=O)[O-])c2)NC1=O [C3] (W[dA][dV][dA]W[Orn]T[Orn][dV][Tyr(3-NO2)]K-NH2; linker N-11 via Glutaryl)
- S. aureus MMC99 6 h (S. aureus (ATCC 12600); 6 h): >100 µg/mL
- S. aureus MMC99 24 h (S. aureus (ATCC 12600); 24 h): >100 µg/mL
- S. aureus MMC99 2 h (S. aureus (ATCC 12600); lowest concentration killing 99% of inoculum, 2 h, two-fold dilutions 100-1.6 μg/mL): >100 µg/mL
- C. albicans MMC99 2 h ([1]; 2 h): >100 µg/mL
- C. albicans MMC99 6 h ([1]; 6 h): >100 µg/mL
- C. albicans MMC99 24 h ([1]; 24 h): >100 µg/mL
- S. aureus MIC (S. aureus): >512 µg/mL
- MIC obtained for mechanistic experiments (E. coli CCUG31246 [2]): 512 µg/mL
- C. albicans MIC (C. albicans): >512 µg/mL
- stability in human serum ([3]; human serum from male AB plasma, 250 μL serum + 100 μL aqueous peptide solution (L2 1 mM; L3 0.9 mM; L3-K 0.7 mM; C3 0.5 mM), 0, 0.5, 1, 4, 24 h, Fmoc-Gly internal standard): stable after 24 h
- additional peaks / shoulder in chromatogram after 24 h in serum, total volume percentage ([3]; human serum, 24 h, detection at 254 nm): does not show any additional signal
- membrane potential, DiSC(3)5 fluorescence, 10 min (E. coli CCUG31246 [4]; 1× MIC of peptide, polymyxin B 10 μg/mL, 10 min): no effect on the membrane potential
- membrane potential, DiSC(3)5 fluorescence, 60 min (E. coli CCUG31246 [4]; 1× MIC, 60 min): partial depolarization
